Measured values reported in patent US10610520B2, “Heterocyclic compound” (Takeda Pharmaceutical Company Limited, priority 2016, dated 2020).

target: T1, His-hMAGL (recombinant polyhistidine tagged human MAGL protein) (Homo sapiens, UniProt Q99685); assay: Measurement of MAGL inhibitory activity (arachidonic acid production from 2-arachidonylglycerol, RapidFire-mass spectrometry); format: biochemical; conditions: MAGL inhibitory rate, test compound 10 μM, 60 min preincubation, 2-arachidonylglycerol substrate
T1 construct: made in house; host or cells: E. coli BL21(DE3)
T1 sequence (Q99685 1-303): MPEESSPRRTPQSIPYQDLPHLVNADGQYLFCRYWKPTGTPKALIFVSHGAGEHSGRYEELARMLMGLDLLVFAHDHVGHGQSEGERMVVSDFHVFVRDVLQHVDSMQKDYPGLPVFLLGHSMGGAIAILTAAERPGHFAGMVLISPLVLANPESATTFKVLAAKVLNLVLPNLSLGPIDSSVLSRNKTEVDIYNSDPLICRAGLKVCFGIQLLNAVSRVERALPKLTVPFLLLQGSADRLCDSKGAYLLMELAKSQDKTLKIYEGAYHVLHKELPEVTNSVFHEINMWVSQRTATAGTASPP
Method: The His-hMAGL obtained above was diluted with enzyme reaction buffer (10 mM Tris-HCl, pH 7.5, 1 mM EDTA, 0.025 (w/v) % Triton X-100, 0.01% Bovine serum albumin) to a concentration of 7.5 ng/mL. […] Thereafter, to each well was added 5 μL of 150 μM 2-arachidonylglycerol (Tocris Bioscience), and the mixture was incubated at room temperature for 10 min. Then, 10 μL of 2% formic acid (Wako Pure Chemical Industries, Ltd.) was added to stop the reaction. Furthermore, acetonitrile (50 μL) containing 3 μM arachidonic acid-d8 (Cayman Chemical Company) was added and the mixture was stirred.
The amount of arachidonic acid in the obtained enzyme reaction mixture was calculated by measuring by RapidFire-mass spectrometry and correcting by the amount of arachidonic acid-d8. High Throughput online solid phase extraction was performed using RapidFire 300™ system (Agilent Technologies, Inc.). Samples were loaded on SPE C4 cartridge (Agilent Technologies, Inc.) and desalted with 0.2 (v/v) % acetic acid (Wako Pure Chemical Industries, Ltd.) in ultrapure water/acetonitrile (70/30, v/v) at a flow rate of 1.5 mL/min, eluted at a flow rate of 0.5 mL/min with 0.2 (v/v) % acetic acid dissolved in acetonitrile/ultrapure water (90/10, v/v), and injected into the mass spectrometry part. The injection needle was washed with ultrapure water (500 millisecond) and acetonitrile (500 millisecond) to minimize carry-over. […] The RapidFire300 system was controlled by RapidFire UI software version 3.6 (Agilent Technologies, Inc.).
The mass spectrometry of the resultant product was performed using API4000™ triple quadrupole mass spectrometer (AB SCIEX) equipped with an electrospray ion sauce (TurboIon Spray™) in a negative selected reaction monitoring (SRM) mode. The conditions of SRM are shown below. The parameters of the instrument were optimized as follows: capillary temperature 600° C., ion spray voltage −4.5 kV, collision gas 8, curtain gas 15 psi, ion source gas 1 60 psi, ion source gas 2 60 psi. The mass spectrometer was controlled by Analyst™ software version 1.5.1 (AB SCIEX). The peak area integration was analyzed using RapidFire integrator software version 3.6 (Agilent Technologies, Inc.).
MAGL inhibitory rate (%) was calculated according to the following calculation formula. (1-(arachidonic acid production amount of test compound addition group−arachidonic acid production amount of enzyme-free group)÷(arachidonic acid production amount of test compound-free group−arachidonic acid production amount of enzyme-free group))×100

**Q.** Which inhibition at 10 µM does the source give for `O=C1CCC2(CN(C(=O)c3cc4cc(C(F)(F)F)ccc4s3)C2)N1` [Example 33, 2-((5-(trifluoromethyl)-1-benzothiophen-2-yl)carbonyl)-2,5-diazaspiro[3.4]octan-6-one] here?
**A.** 85%

**Q.** `O=C1CCC2(CN(C(=O)N3CC(COc4ccc(F)cc4Cl)C3)C2)N1` [Example 34, 2-((3-((2-chloro-4-fluorophenoxy)methyl)azetidin-1-yl)carbonyl)-2,5-diazaspiro[3.4]octan-6-one] was tested. Which inhibition at 10 µM did it give?
**A.** 99%

**Q.** Which inhibition at 10 µM does the source give for `O=C1CCC2(CN(C(=O)c3sc4cc(Br)ccc4c3Cl)C2)N1` [Example 35, 2-((6-bromo-3-chloro-1-benzothiophen-2-yl)carbonyl)-2,5-diazaspiro[3.4]octan-6-one] here?
**A.** 99%

**Q.** How did the inhibition at 10 µM turn out when `O=C1CCC2(CN(C(=O)c3sc4cc(-c5ccc(F)cc5)ccc4c3Cl)C2)N1` [Example 36, 2-((3-chloro-6-(4-fluorophenyl)-1-benzothiophen-2-yl)carbonyl)-2,5-diazaspiro[3.4]octan-6-one] was run?
**A.** 99%

**Q.** `O=C1CCC2(CN(C(=O)c3sc4cc(-c5cccc(F)c5)ccc4c3Cl)C2)N1` [Example 37, 2-((3-chloro-6-(3-fluorophenyl)-1-benzothiophen-2-yl)carbonyl)-2,5-diazaspiro[3.4]octan-6-one] was tested. Which inhibition at 10 µM did it give?
**A.** 99%

**Q.** For `O=C1CCC2(CN(C(=O)c3sc4cc(-c5ccccc5F)ccc4c3Cl)C2)N1` [Example 38, 2-((3-chloro-6-(2-fluorophenyl)-1-benzothiophen-2-yl)carbonyl)-2,5-diazaspiro[3.4]octan-6-one], which inhibition at 10 µM is on record?
**A.** 103%

**Q.** Which inhibition at 10 µM does the source give for `O=C1CCC2(CN(C(=O)c3sc4cc(-c5ccc(F)cc5F)ccc4c3Cl)C2)N1` [Example 39, 2-((3-chloro-6-(2,4-difluorophenyl)-1-benzothiophen-2-yl)carbonyl)-2,5-diazaspiro[3.4]octan-6-one] here?
**A.** 101%

**Q.** `O=C1CCC2(CN(C(=O)c3ccc(-c4ccc(C(F)(F)F)cc4)cc3)C2)N1` [Example 40, 2-((4′-(trifluoromethyl)biphenyl-4-yl)carbonyl)-2,5-diazaspiro[3.4]octan-6-one] was tested. Which inhibition at 10 µM did it give?
**A.** 98%

**Q.** Which inhibition at 10 µM does the source give for `COc1cc(-c2ccccc2)ccc1C(=O)N1CC2(CCC(=O)N2)C1` [Example 43, 2-((3-methoxybiphenyl-4-yl)carbonyl)-2,5-diazaspiro[3,4]octan-6-one] here?
**A.** 87%

**Q.** With `O=C1CCC2(CN(C(=O)c3ccc(-c4ccc(C(F)(F)F)c(Cl)c4)cc3)C2)N1` [Example 44, 2-((3′-chloro-4′-(trifluoromethyl)biphenyl-4-yl)carbonyl)-2,5-diazaspiro[3.4]octan-6-one] as the compound, how does the inhibition at 10 µM read?
**A.** 100%

**Q.** How did the inhibition at 10 µM turn out when `O=C1CCC2(CN(C(=O)c3ccc(-c4ccc(C(F)(F)F)c(F)c4)cc3)C2)N1` [Example 45, 2-((3′-fluoro-4′-(trifluoromethyl)biphenyl-4-yl)carbonyl)-2,5-diazaspiro[3.4]octan-6-one] was run?
**A.** 97%

**Q.** Which inhibition at 10 µM does the source give for `O=C1CCC2(CN(C(=O)c3ccc(-c4ccc(C(F)(F)F)cc4F)cc3)C2)N1` [Example 46, 2-((2′-fluoro-4′-(trifluoromethyl)biphenyl-4-yl)carbonyl)-2,5-diazaspiro[3.4]octan-6-one] here?
**A.** 96%

**Q.** With `O=C1CCC2(CN(C(=O)c3ccc(-c4ccc(C(F)(F)F)cc4Cl)cc3)C2)N1` [Example 47, 2-((2′-chloro-4′-(trifluoromethyl)biphenyl-4-yl)carbonyl)-2,5-diazaspiro[3.4]octan-6-one] as the compound, how does the inhibition at 10 µM read?
**A.** 96%

**Q.** How did the inhibition at 10 µM turn out when `O=C1CCC2(CN(C(=O)c3ccc(-c4cc(C(F)(F)F)cc(C(F)(F)F)c4)cc3)C2)N1` [Example 48, 2-((3′,5′-bis(trifluoromethyl)biphenyl-4-yl)carbonyl)-2,5-diazaspiro[3.4]octan-6-one] was run?
**A.** 98%

**Q.** With `O=C1CCC2(CN(C(=O)c3ccc(-c4cccc(C(F)(F)F)c4F)cc3)C2)N1` [Example 49, 2-((2′-fluoro-3′-(trifluoromethyl)biphenyl-4-yl)carbonyl)-2,5-diazaspiro[3.4]octan-6-one] as the compound, how does the inhibition at 10 µM read?
**A.** 99%

**Q.** How did the inhibition at 10 µM turn out when `O=C1CCC2(CN(C(=O)c3ccc(-c4ccc(F)c(C(F)(F)F)c4)cc3)C2)N1` [Example 50, 2-((4′-fluoro-3′-(trifluoromethyl)biphenyl-4-yl)carbonyl)-2,5-diazaspiro[3.4]octan-6-one] was run?
**A.** 98%

**Q.** With `O=C1CCC2(CN(C(=O)c3ccc(-c4cccc(C(F)(F)F)c4Cl)cc3)C2)N1` [Example 51, 2-((2′-chloro-3′-(trifluoromethyl)biphenyl-4-yl)carbonyl)-2,5-diazaspiro[3.4]octan-6-one] as the compound, how does the inhibition at 10 µM read?
**A.** 99%

**Q.** How did the inhibition at 10 µM turn out when `O=C1CCC2(CN(C(=O)c3ccc(-c4ccc(Cl)c(C(F)(F)F)c4)cc3)C2)N1` [Example 52, 2-((4′-chloro-3′-(trifluoromethyl)biphenyl-4-yl)carbonyl)-2,5-diazaspiro[3.4]octan-6-one] was run?
**A.** 99%

**Q.** For `O=C1CCC2(CN(C(=O)c3ccc(-c4cc(C5CC5)ccc4F)cc3)C2)N1` [Example 53, 2-((5′-cyclopropyl-2′-fluorobiphenyl-4-yl)carbonyl)-2,5-diazaspiro[3.4]octan-6-one], which inhibition at 10 µM is on record?
**A.** 99%

**Q.** Which inhibition at 10 µM does the source give for `CC(C)(C)c1ccc(-c2ccc(C(=O)N3CC4(CCC(=O)N4)C3)cc2)cc1` [Example 54, 2-((4′-tert-butylbiphenyl-4-yl)carbonyl)-2,5-diazaspiro[3.4]octan-6-one] here?
**A.** 99%

**Q.** `CC(C)(C)c1cccc(-c2ccc(C(=O)N3CC4(CCC(=O)N4)C3)cc2)c1` [Example 55, 2-((3′-tert-butylbiphenyl-4-yl)carbonyl)-2,5-diazaspiro[3.4]octan-6-one] was tested. Which inhibition at 10 µM did it give?
**A.** 101%

**Q.** For `Cn1c(-c2ccc(C(=O)N3CC4(CCC(=O)N4)C3)cc2)cc2ccccc21` [Example 56, 2-(4-(1-methyl-1H-indol-2-yl)benzoyl)-2,5-diazaspiro[3.4]octan-6-one], which inhibition at 10 µM is on record?
**A.** 94%

**Q.** For `O=C1CCC2(CN(C(=O)c3ccc(-c4ccc5c(c4)CCC5)cc3)C2)N1` [Example 57, 2-(4-(2,3-dihydro-1H-inden-5-yl)benzoyl)-2,5-diazaspiro[3.4]octan-6-one], which inhibition at 10 µM is on record?
**A.** 99%

**Q.** Which inhibition at 10 µM does the source give for `O=C1CCC2(CN(C(=O)c3ccc(-c4ccc(OC(F)(F)F)cc4)cc3)C2)N1` [Example 58, 2-((4′-(trifluoromethoxy)biphenyl-4-yl)carbonyl)-2,5-diazaspiro[3.4]octan-6-one] here?
**A.** 96%

**Q.** With `O=C1CCC2(CN(C(=O)c3ccc(-c4ccc(OC(F)(F)F)cc4F)cc3)C2)N1` [Example 59, 2-((2′-fluoro-4′-(trifluoromethoxy)biphenyl-4-yl)carbonyl)-2,5-diazaspiro[3.4]octan-6-one] as the compound, how does the inhibition at 10 µM read?
**A.** 97%

**Q.** How did the inhibition at 10 µM turn out when `O=C1CCC2(CN(C(=O)c3ccc(-c4cccc(OC(F)(F)F)c4)cc3)C2)N1` [Example 60, 2-((3′-(trifluoromethoxy)biphenyl-4-yl)carbonyl)-2,5-diazaspiro[3.4]octan-6-one] was run?
**A.** 98%

**Q.** Which inhibition at 10 µM does the source give for `O=C1CCC2(CN(C(=O)c3ccc(-c4cc(OC(F)(F)F)ccc4F)cc3)C2)N1` [Example 61, 2-((2′-fluoro-5′-(trifluoromethoxy)biphenyl-4-yl)carbonyl)-2,5-diazaspiro[3.4]octan-6-one] here?
**A.** 97%

**Q.** For `O=C1CCC2(CN(C(=O)c3ccc(-c4ccccc4OC(F)(F)F)cc3)C2)N1` [Example 62, 2-((2′-(trifluoromethoxy)biphenyl-4-yl)carbonyl)-2,5-diazaspiro[3.4]octan-6-one], which inhibition at 10 µM is on record?
**A.** 95%

**Q.** How did the inhibition at 10 µM turn out when `O=C1CCC2(CN(C(=O)c3ccc(-c4ccc(C5(C(F)(F)F)CC5)cc4)cc3)C2)N1` [Example 63, 2-((4′-(1-(trifluoromethyl)cyclopropyl)biphenyl-4-yl)carbonyl)-2,5-diazaspiro[3.4]octan-6-one] was run?
**A.** 99%

**Q.** With `O=C1CCC2(CN(C(=O)c3ccc(-c4cccc(C5(C(F)(F)F)CC5)c4)cc3)C2)N1` [Example 64, 2-((3′-(1-(trifluoromethyl)cyclopropyl)biphenyl-4-yl)carbonyl)-2,5-diazaspiro[3.4]octan-6-one] as the compound, how does the inhibition at 10 µM read?
**A.** 99%

**Q.** `O=C1CCC2(CN(C(=O)c3ccc(-c4ccc5sc(C(F)(F)F)nc5c4)cc3)C2)N1` [Example 65, 2-(4-(2-(trifluoromethyl)-1,3-benzothiazol-5-yl)benzoyl)-2,5-diazaspiro[3.4]octan-6-one] was tested. Which inhibition at 10 µM did it give?
**A.** 85%
